Measured values taken from US10759831B2, “Peptide compound, production method therefor, and use thereof” (iNtRON Biotechnology, Inc., priority 2014, dated 2020).

Key:
[1] = test system: lung cancer cell line A549; assay: SRB cell viability assay, lung cancer cell line A549; type: cell-based; conditions: Homo sapiens; A549, 72 hours; read-out: Cell growth inhibition concentration (IC50)
Procedure: Regarding a lung cancer cell line A549 (Korean Cell line Bank), a colon cancer cell line HCT116 (ATCC), a stomach cancer cell line SNU638 (Korean Cell Line Bank), a liver cancer cell line SK-HEP-1 (Korean Cell line Bank), and a breast cancer cell line MDA-MB-231 (Korean Cell line Bank), a sulforhodamine B (SRB) assay which is a method of measuring cell viability was used for measuring apoptosis effects of Asperphenin.
(§1) In detail, 190 μl of a cell suspension at a concentration of 3.5×10^4 cells/ml was inoculated in each well of a 96-well microplate. 0.8 μM, 4 μM, 20 μM, or 100 μM of Asperphenin was added to the cell culture medium, and cultured at a temperature of 37° C. for 72 hours under the condition of 5% CO2. After incubation, 50 μl of 50% (v/v) trichloroacetic acid solution (Sigma Aldrich) was added to each well, and then, incubated at a temperature of 4° C. for 30 minutes, to thereby fix the cells thereto. The fixed cells were washed with water five times, and then, dried in the air.
Next, 80 μl of a 0.4% (w/v) SRB aqueous solution (Sigma Aldrich) containing 1% (v/v) acetic acid (DUKSAN) was added to each well, incubated at room temperature for 1 hour to stain cells therein, and the stained cells washed with water and dried. The cells were dissolved by adding 200 μl of 10 mM Tris (pH 10.0) (Sigma Aldrich) to each well, and then, the number of living cells was calculated by measuring the absorbance thereof at 515 nm. The concentration of the compound inhibiting cell growth to 50% based on the number of the living cells, i.e., 50% inhibition concentration (IC50) was calculated, and the results are shown in Table 3. Here, as a positive control, etoposide (Sigma Aldrich) was used.

[2] = test system: colon cancer cell line HCT15; assay: SRB cell viability assay, colon cancer cell line HCT15; type: cell-based; conditions: Homo sapiens, HCT-15, read-out: Growth inhibition value of cancer cell (IC50)
Procedure: as §1
(§2) Next, 80 μl of a 0.4% (w/v) SRB aqueous solution (Sigma Aldrich) containing 1% (v/v) acetic acid (DUKSAN) was added to each well, incubated at room temperature for 1 hour to stain cells therein, and the stained cells washed with water and dried. The cells were dissolved by adding 200 μl of 10 mM Tris (pH 10.0) (Sigma Aldrich) to each well, and then, the number of living cells was calculated by measuring the absorbance thereof at 515 nm. […]
(§3) From the colon cancer cell lines HCT116 (ATCC), HCT15 (Korean Cell Line Bank), LS174T (Korean Cell Line Bank), RKO(ATCC), and SW480(ATCC), cell growth inhibition concentrations (IC50, μM) were calculated as described in Example 2-1, and the results are shown in Table 4. […]

[3] = test system: colon cancer cell line RKO; assay: SRB cell viability assay, colon cancer cell line RKO; type: cell-based; conditions: Homo sapiens, read-out: Growth inhibition value of cancer cell (IC50)
Procedure: as §1, §2, §3

[4] = test system: colon cancer cell line SW480; assay: SRB cell viability assay, colon cancer cell line SW480; type: cell-based; conditions: Homo sapiens, read-out: Growth inhibition value of cancer cell (IC50)
Procedure: as §1, §2, §3

[5] = test system: colon cancer cell line RKO; assay: Cell cycle analysis by PI flow cytometry; type: cell-based, human
Procedure: The effects of Asperphenin B on the cell cycle of the colon cancer cell line RKO was confirmed by flow cytometry.
RKO cells (ATCC) were diluted in a medium containing 10% (v/v) FBS to become 1×10^5 cells/ml, and then, inoculated into a 60 mm culture dish. The inoculated cells were cultured for about 24 hours at a temperature of 37° C. under the condition of 5% CO2. The cultured cells were washed with phosphate-buffered saline (PBS) once, and the medium was replaced by a fresh medium. Asperphenin B at the final concentration of 0.625 μM, 1.25 μM, 2.5 μM, 5 μM, or 10 μM was added to the cultured cells, and then, the cells were cultured at a temperature of 37° C. under condition of 5% CO2.
After a certain period of time, cells attached to the culture dish and cells not attached to the medium were collected. The collected cells was washed with PBS once, and then, 1 ml of cold 70% (v/v) ethanol. The cells were incubated at a temperature of 4° C. for about 12 hours to fix the cells. After removing 70% (v/v) ethanol, the fixed cells were washed with PBS once. 500 μl of RNase A (Sigma Aldrich) at a concentration of 50 μg/ml as added to the cells, and the cells were incubated at room temperature for about 30 minutes. Propidium iodide (PI) at a final concentration of 50 μg/ml was added to the cells, and then, the cells were incubated at room temperature for about 30 minutes in a condition where reactants were in the shaded state. The cells stained with PI were subjected to analysis of cell cycle by using a BD FACSCalibur flow cytrometer (manufactured by BD Biosciences). Based on the flow cytometry results, cell ratios at the sub-G1, G0/G1, S, and G2/M phases were calculated. Here, as a negative control, cells to which Asperphenin B was not added was used.
When the RKO cells were incubated for 48 hours in the presence of Asperphenin B, cell ratios (%) dependent on the concentration of Asperphenin B are shown in FIG. 3A and Table 5. When the RKO cells were incubated in the presence of Asperphenin B at the concentrations of 2.5 μM and 5 μM, cell ratios (%) dependent on the incubation time are shown in FIGS. 3B and 3C, and Table 6.

[6] = Physicochemical characterization
[7] = RKO cells, 2.5 μM, 48 hours, Table 6
[8] = RKO cells, 5 μM, 48 hours, Table 6
[9] = RKO cells, 48 hours, 2.5 μM, Table 5
[10] = RKO cells, 48 hours, 5 μM, Table 5

- IC50 [1]: 41.8 µM
- IC50 [2]: 7.2 µM
- IC50 [3]: 1.17 µM
- IC50 [4]: 31.4 µM
- Stability [6]: stable at room temperature
SMILES: CCCCCCCCC[C@@H](O)CC(=O)N[C@@H](CC(N)=O)C(=O)N[C@@H](CCC(N)=O)C(=O)N[C@H](CC(=O)c1cc(C)cc(O)c1C(=O)c1c(O)cccc1O)CC(C)C [Asperphenin B]
- Effect on cells in the G2/M phase ([5]; 2.5 μM or 5 μM, until 24 hours of treatment): cell cycle arrest
- Effect after 48 hours of treatment ([5]; RKO cells, 2.5 μM or 5 μM, 48 hours): cell apoptosis was induced
- Cell ratio, G0/G1 phase ([5]; RKO cells, 2.5 μM, 6 hours): 62.16%
- Cell ratio, G2/M phase ([5]; RKO cells, 2.5 μM, 6 hours): 18.28%
- Cell ratio, S phase ([5]; RKO cells, 2.5 μM, 6 hours): 13.82%
- Cell ratio, Sub-G1 phase ([5]; RKO cells, 2.5 μM, 6 hours): 3.77%
- Cell ratio, G0/G1 phase ([5]; RKO cells, 2.5 μM, 12 hours): 56.50%
- Cell ratio, G2/M phase ([5]; RKO cells, 2.5 μM, 12 hours): 22.18%
- Cell ratio, S phase ([5]; RKO cells, 2.5 μM, 12 hours): 15.09%
- Cell ratio, Sub-G1 phase ([5]; RKO cells, 2.5 μM, 12 hours): 3.25%
- Cell ratio, G0/G1 phase ([5]; RKO cells, 2.5 μM, 24 hours): 30.73%
- Cell ratio, G2/M phase ([5]; RKO cells, 2.5 μM, 24 hours): 40.76%
- Cell ratio, S phase ([5]; RKO cells, 2.5 μM, 24 hours): 17.38%
- Cell ratio, Sub-G1 phase ([5]; RKO cells, 2.5 μM, 24 hours): 5.03%
- Cell ratio, G0/G1 phase [5, 7]: 17.80%
- Cell ratio, G2/M phase [5, 7]: 39.31%
- Cell ratio, S phase [5, 7]: 6.55%
- Cell ratio, Sub-G1 phase [5, 7]: 33.38%
- Cell ratio, G0/G1 phase ([5]; RKO cells, 5 μM, 6 hours): 60.66%
- Cell ratio, G2/M phase ([5]; RKO cells, 5 μM, 6 hours): 20.21%
- Cell ratio, S phase ([5]; RKO cells, 5 μM, 6 hours): 13.48%
- Cell ratio, Sub-G1 phase ([5]; RKO cells, 5 μM, 6 hours): 3.19%
- Cell ratio, G0/G1 phase ([5]; RKO cells, 5 μM, 12 hours): 57.60%
- Cell ratio, G2/M phase ([5]; RKO cells, 5 μM, 12 hours): 20.93%
- Cell ratio, S phase ([5]; RKO cells, 5 μM, 12 hours): 14.63%
- Cell ratio, Sub-G1 phase ([5]; RKO cells, 5 μM, 12 hours): 3.80%
- Cell ratio, G0/G1 phase ([5]; RKO cells, 5 μM, 24 hours): 28.35%
- Cell ratio, G2/M phase ([5]; RKO cells, 5 μM, 24 hours): 48.88%
- Cell ratio, S phase ([5]; RKO cells, 5 μM, 24 hours): 14.08%
- Cell ratio, Sub-G1 phase ([5]; RKO cells, 5 μM, 24 hours): 4.86%
- Cell ratio, G0/G1 phase [5, 8]: 20.53%
- Cell ratio, G2/M phase [5, 8]: 23.37%
- Cell ratio, S phase [5, 8]: 5.90%
- Cell ratio, Sub-G1 phase [5, 8]: 48.23%
- Cell ratio, G0/G1 phase ([5]; RKO cells, 48 hours, 0.625 μM): 52.49%
- Cell ratio, G2/m phase ([5]; RKO cells, 48 hours, 0.625 μM): 29.56%
- Cell ratio, S phase ([5]; RKO cells, 48 hours, 0.625 μM): 8.11%
- Cell ratio, Sub-G1 phase ([5]; RKO cells, 48 hours, 0.625 μM): 7.14%
- Cell ratio, G0/G1 phase ([5]; RKO cells, 48 hours, 1.25 μM): 23.02%
- Cell ratio, G2/m phase ([5]; RKO cells, 48 hours, 1.25 μM): 43.94%
- Cell ratio, S phase ([5]; RKO cells, 48 hours, 1.25 μM): 6.39%
- Cell ratio, Sub-G1 phase ([5]; RKO cells, 48 hours, 1.25 μM): 24.18%
- Cell ratio, G0/G1 phase [5, 9]: 17.99%
- Cell ratio, G2/m phase [5, 9]: 34.58%
- Cell ratio, S phase [5, 9]: 6.63%
- Cell ratio, Sub-G1 phase [5, 9]: 38.60%
- Cell ratio, G0/G1 phase [5, 10]: 17.59%
- Cell ratio, G2/m phase [5, 10]: 15.97%
- Cell ratio, S phase [5, 10]: 5.29%
- Cell ratio, Sub-G1 phase [5, 10]: 59.90%
- Cell ratio, G0/G1 phase ([5]; RKO cells, 48 hours, 10 μM): 17.07%
- Cell ratio, G2/m phase ([5]; RKO cells, 48 hours, 10 μM): 8.92%
- Cell ratio, S phase ([5]; RKO cells, 48 hours, 10 μM): 5.46%
- Cell ratio, Sub-G1 phase ([5]; RKO cells, 48 hours, 10 μM): 67.82%
- Solubility in organic solvent [6]: well dissolved in a moderate organic solvent, such as methanol and acetone
